{
  "source": "ChEMBL document CHEMBL5236548",
  "about": "“Marine Natural Products: A Potential Source of Anti-hepatocellular Carcinoma Drugs” (J Med Chem, 2021)",
  "key": {"[1]": {"system": "SK-HEP1", "assay": "Cytotoxicity against human SK-HEP1 cells measured after 1 hr by SRB assay", "type": "functional, cell-based", "details": "SK-HEP1, 1 h"}, "[2]": {"system": "Hep 3B2", "assay": "Cytotoxicity against human Hep3B cells measured after 1 hr by SRB assay", "type": "functional, cell-based"}, "[3]": {"assay": "Cytotoxicity against human Huh-7D12 cells measured after 1 hr by SRB assay", "type": "functional, cell-based", "details": "Huh-7D12, 1 h"}, "[4]": {"system": "HepG2", "assay": "Cytotoxicity against human HepG2 cells measured after 1 hr by SRB assay", "type": "functional, cell-based", "details": "HepG2, 1 h"}, "[5]": {"system": "PLC-PRF-5", "assay": "Cytotoxicity against human PLC-PRF-5 cells measured after 1 hr by SRB assay", "type": "functional, cell-based", "details": "PLC-PRF-5, 1 h"}, "[6]": {"assay": "Cytotoxicity against human Zip177 cells by SRB assay", "type": "functional, cell-based"}, "[7]": {"system": "SMMC-7721", "assay": "Cytotoxicity against human SMMC-7721 cells assessed as reduction in cell viability by SRB assay", "type": "functional, cell-based"}, "[8]": {"assay": "Cytotoxicity against human HCC cells by SRB assay", "type": "functional, cell-based"}, "[9]": {"system": "Bel-7402", "assay": "Cytotoxicity against human Bel-7402 cells by SRB assay", "type": "functional, cell-based"}, "[10]": {"system": "Hep 3B2", "assay": "Cytotoxicity against human Hep3B cells by SRB assay", "type": "functional, cell-based"}, "[11]": {"system": "Bel-7402", "assay": "Growth inhibition of human Bel-7402 cells", "type": "functional, cell-based"}, "[12]": {"system": "SNU-387", "assay": "Antiproliferative activity against human SNU-387 cells by MTT assay", "type": "functional, cell-based"}, "[13]": {"system": "HepG2", "assay": "Antiproliferative activity against human HepG2 cells by MTT assay", "type": "functional, cell-based"}, "[14]": {"assay": "Antiproliferative activity against human HCC cells by MTT assay", "type": "functional, cell-based"}, "[15]": {"system": "Huh-7", "assay": "Antiproliferative activity against human Huh-7 cells by MTT assay", "type": "functional, cell-based"}, "[16]": {"system": "HepG2", "assay": "Cytotoxicity against human HepG2 cells by SRB assay", "type": "functional, cell-based"}, "[17]": {"system": "SMMC-7721", "assay": "Cytotoxicity against human SMMC-7721 cells by SRB assay", "type": "functional, cell-based"}, "[18]": {"system": "PLC-PRF-5", "assay": "Cytotoxicity against human PLC-PRF-5 cells by SRB assay", "type": "functional, cell-based"}, "[19]": {"system": "HA22T cell line", "assay": "Cytotoxicity against human HA22T cells by MTT assay", "type": "functional, cell-based"}, "[20]": {"system": "HepG2", "assay": "Cytotoxicity against human HepG2 cells by MTT assay", "type": "functional, cell-based"}, "[21]": {"system": "Hep 3B2", "assay": "Cytotoxicity against human Hep3B cells by MTT assay", "type": "functional, cell-based"}, "[22]": {"system": "HepG2", "assay": "Anticancer activity against human HepG2 cells by MTT assay", "type": "functional, cell-based"}, "[23]": {"system": "Bel-7402", "assay": "Antitumor activity against human Bel-7402 cells xenografted in mouse assessed as reduction in tumor volume at 2 mg/kg, ip administered daily for 21 days by caliper method relative to control", "type": "functional", "design": "scale not given: the % may be the effect or the level left", "details": "time 21 day"}, "[24]": {"system": "H22", "assay": "Antitumor activity against […] cells xenografted in mouse assessed as reduction in tumor volume at 2 mg/kg, ip administered daily for 21 days by caliper method relative to control", "type": "functional", "design": "scale not given: the % may be the effect or the level left", "details": "time 21 day"}, "[25]": {"assay": "Half life in Kunming mouse at 15 to 30 mg/kg measured upto 240 mins", "type": "ADME, organism-based", "details": "in vivo, dose 15-30 mg/kg"}, "[26]": {"assay": "Cytotoxicity against human HepG3 cells measured after 3 days by MTT assay", "type": "functional, cell-based", "details": "HepG3, 72 h"}, "[27]": {"system": "HepG2", "assay": "Cytotoxicity against human HepG2 cells measured after 3 days by MTT assay", "type": "functional, cell-based", "details": "HepG2, 72 h"}, "[28]": {"system": "SMMC-7721", "assay": "Antiproliferative activity against human SMMC-7721 cells measured after 48 hrs", "type": "functional, cell-based", "details": "SMMC-7721, 48 h"}},
  "data": [
    {"smiles": "C/C=C1/NC(=O)[C@H](Cc2ccccc2)NC(=O)[C@@H](C(C)C)NC(=O)[C@@H]([C@@H](C)CC)NC(=O)[C@H](NC(=O)[C@H](NC(=O)[C@H](CCCN)NC(=O)[C@H]2CCCN2C(=O)[C@H](NC(=O)[C@@H](NC(=O)[C@@H](NC(=O)[C@H](NC(=O)CCCC(C)C)C(C)C)[C@@H](C)O)C(C)C)C(C)C)[C@@H](C)CC)[C@@H](C)OC(=O)[C@H](C(C)C)NC1=O", "values": [
      {"measurement": "IC50", "setting": "[1]", "result": 2400, "unit": "nM"},
      {"measurement": "IC50", "setting": "[2]", "result": 350, "unit": "nM"},
      {"measurement": "IC50", "setting": "[3]", "result": 300, "unit": "nM"},
      {"measurement": "IC50", "setting": "[4]", "result": 300, "unit": "nM"},
      {"measurement": "IC50", "setting": "[5]", "result": 5300, "unit": "nM"}
    ]},
    {"smiles": "COC(=O)[C@H](CCCC(C)C)[C@H]1CC[C@H]2[C@@H]3CC[C@H]4CC(=O)C=C[C@]4(C)[C@H]3CC[C@]12C", "note": "[METHYL SPONGOATE]", "values": [
      {"measurement": "IC50", "setting": "[6]", "result": 3000, "unit": "nM"},
      {"measurement": "IC50", "setting": "[7]", "result": 2000, "unit": "nM"},
      {"measurement": "IC50", "setting": "[8]", "result": 4400, "unit": "nM"},
      {"measurement": "IC50", "setting": "[9]", "result": 1700, "unit": "nM"},
      {"measurement": "IC50", "setting": "[10]", "result": 5000, "unit": "nM"}
    ]},
    {"smiles": "Oc1cc(Br)c(Cc2cc(O)c(O)cc2Br)cc1O", "values": [
      {"measurement": "IC50", "setting": "[11]", "result": 15900, "unit": "nM"}
    ]},
    {"smiles": "CNC(=O)c1cc(Oc2ccc(NC(=O)Nc3ccc(Cl)c(C(F)(F)F)c3)cc2)ccn1", "note": "[SORAFENIB]", "values": [
      {"measurement": "IC50", "setting": "[12]", "result": 259000, "unit": "nM"},
      {"measurement": "IC50", "setting": "[13]", "result": 6400, "unit": "nM"},
      {"measurement": "IC50", "setting": "[14]", "result": 21200, "unit": "nM"},
      {"measurement": "IC50", "setting": "[15]", "result": 4250, "unit": "nM"}
    ]},
    {"smiles": "C[C@@H]1O[C@@H](O[C@H]2CC[C@H](O[C@@]3(C)CC(=O)[C@]4(O)C5=C(C=C[C@]4(O)C3)C(=O)c3c(ccc([C@H]4C[C@H]6O[C@H]7CC(=O)[C@H](C)O[C@@H]7O[C@@H]6[C@@H](C)O4)c3O)C5=O)O[C@H]2C)C=CC1=O", "values": [
      {"measurement": "IC50", "setting": "[16]", "result": 135, "unit": "nM"},
      {"measurement": "IC50", "setting": "[17]", "result": 33, "unit": "nM"},
      {"measurement": "IC50", "setting": "[18]", "result": 244, "unit": "nM"}
    ]},
    {"smiles": "CCCCC/C=C\\CC1(O)C=C(Br)C(=O)/C1=C\\C=C\\CCCC(=O)OC", "note": "(stereo not drawn)", "values": [
      {"measurement": "IC50", "setting": "[19]", "result": 410, "unit": "nM"},
      {"measurement": "IC50", "setting": "[20]", "result": 590, "unit": "nM"},
      {"measurement": "IC50", "setting": "[21]", "result": 470, "unit": "nM"}
    ]},
    {"smiles": "CCCCCC1=C/C(=C\\c2[nH]c(-c3ccc[nH]3)cc2OC)N=C1C", "values": [
      {"measurement": "IC50", "setting": "[22]", "result": 40, "unit": "nM"}
    ]},
    {"smiles": "COc1cccc2c1C(=O)c1c(O)c3c(c(O)c1C2=O)C[C@@](O)(C(=O)CO)C[C@@H]3O[C@H]1C[C@H](N)[C@H](O)[C@H](C)O1.Cl", "note": "[DOXORUBICIN HYDROCHLORIDE]", "values": [
      {"measurement": "Activity", "setting": "[23]", "result": 73.5, "unit": "%"},
      {"measurement": "Activity", "setting": "[24]", "result": 51.9, "unit": "%"},
      {"measurement": "half-life", "setting": "[25]", "result": 23, "unit": "h"}
    ]},
    {"smiles": "C=C(CC[C@@H](C)[C@H]1[C@@H](O)C[C@H]2[C@@H]3CC=C4C[C@@H](O[C@@H]5O[C@@H](C)[C@@H](OC(C)=O)[C@@H](O)[C@@H]5O)CC[C@]4(C)[C@H]3[C@H](O)C[C@]12C)C(C)C", "values": [
      {"measurement": "IC50", "setting": "[26]", "result": 18900, "unit": "nM"},
      {"measurement": "IC50", "setting": "[27]", "result": 17600, "unit": "nM"}
    ]},
    {"smiles": "O=c1[nH]cc(F)c(=O)[nH]1", "note": "[FLUOROURACIL]", "values": [
      {"measurement": "IC50", "setting": "[28]", "result": 20000, "unit": "nM"}
    ]}
  ]
}
